The values below come from patent publication US6773897B2, “Method of predicting the clinical response to chemotherapeutic treatment with alkylating agents” (The Johns Hopkins University School of Medicine, priority 2000, dated 2004).

Experiment [1] relates to diffuse large B-cell lymphoma (B-DLCL). The method, then: DNA was extracted according to standard protocols known to those of skill in the art (see, e.g., Sambrook et al., Molecular Cloning: a Laboratory Manual, 2nd Ed.; Cold Spring Harbor Laboratory Press, Plainview, N.Y., 1998, herein incorporated by reference). Methylation patterns in the CpG island of MGMT were determined by chemical modification of unmethylated, but not methylated, cytosines to uracil. Methylation-specific polymerase chain reaction (PCR) was performed with primers specific for either methylated or the modified unmethylated DNA, as previously described (Esteller, et al. Cancer Res 1999; 59:793-797; incorporated herein by reference in its entirety; and Herman et al. Proc Natl Acad Sci USA 1996;93:9821-9826; incorporated herein by reference in its entirety). DNA (1 μg) was denatured with sodium hydroxide and modified with sodium bisulfite. DNA samples were then purified with the Wizard DNA purification resin (Promega, Madison, Wis.), again treated with sodium hydroxide, precipitated with ethanol, and resuspended in water. Primer sequences for the unmethylated reaction were 5′[…]3′ (forward primer; SEQ ID NO:1) and 5′[…]3′ (reverse primer; SEQ ID NO:2), and for the methylated reaction they were 5′[…]3′ (forward primer; SEQ ID NO:3) and 5′[…]3′ (reverse primer; SEQ ID NO:4). The annealing temperature was 59° C. Placental DNA treated in vitro with Sss I methyltransferase (New England Biolabs, Beverly, Mass.) was used as a positive control for methylated alleles of MGMT, and DNA from normal lymphocytes was used as a negative control. Controls without DNA were used for each set of methylation-specific PCR assays. Ten microliters of each 50-μl methylation-specific PCR product was loaded directly onto nondenaturing 6 percent polyacrylamide gels, stained with ethidium bromide, and examined under ultraviolet illumination.
Continuous variables were compared with the use of Student's t-test. Contingency tables were analyzed by Fisher's exact test. Disease-free and overall survival curves were estimated by the Kaplan-Meier method and were compared with the use of the log-rank test. Multivariate survival analyses were performed with the Cox proportional-hazards model, and proportional-hazards assumptions were checked with the use of Schoenfeld residuals and graphic methods. Descriptive or stratified analyses always preceded parametric modeling in order to confirm that the assumptions underlying the models were met. The results are reported as two-sided P values with 95 percent confidence intervals. Analyses were performed with the use of JMP software (version 3.1, SAS Institute, Cary, N.C.) and Stata software (version 6.0, Stata, College Station, Tex.).
Clinical follow-up was obtained until Aug. 31, 1999 or until death. […] Diagnosis was based on histopathology, immunophenotypic analysis of cell surface markers, and immunogenotypic analysis of immunoglobulin gene rearrangement. The histopathologic definition of B-DLCL was according to the REAL classification (Harris N L, et al., Blood. 1994;84:1361-92). Subjects positive for human immunodeficiency virus were not included in the study. Staging included routine blood chemistry tests; blood cell counts and differential; EKG; chest x-ray; computed tomography of chest, abdomen and pelvis; and bilateral bone marrow biopsy in all subjects. Disease stage was assessed according to Ann Arbor criteria (Carbone P P, et al., Cancer Res. 1971;31:1860-1). The International Prognostic […] (IPI) was calculated as described (The International Non-Hodgkin's Lymphoma Prognostic Factors Project. A predictive model for aggressive non-Hodgkin's lymphoma. N Engl J Med. 1993;329:987-94), with subjects classified as Low, Low-Intermediate, High-Intermediate, and High risk.
Treatment varied, depending on stage of disease, date of diagnosis, institution and prognostic factors.

The target of experiment [2] is T1, MGMT (Homo sapiens, UniProt P16455).
T1 sequence (P16455 1-207): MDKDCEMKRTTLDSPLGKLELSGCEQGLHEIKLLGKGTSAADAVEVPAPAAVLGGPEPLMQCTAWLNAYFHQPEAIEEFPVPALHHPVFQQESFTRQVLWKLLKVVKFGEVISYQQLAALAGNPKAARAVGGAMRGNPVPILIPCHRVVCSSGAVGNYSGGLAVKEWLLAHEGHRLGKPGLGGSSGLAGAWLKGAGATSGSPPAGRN
The note with it: substrate for MGMT; cited from earlier work.

The target of experiment [3] is T1, MGMT. The note with it: cited from earlier work.
For experiment [4], the system named is grade III or IV gliomas (anaplastic astrocytoma, glioblastoma multiforme). Description: Clinical response, survival and time to progression of gliomas treated with carmustine, by MGMT promoter methylation status. In kind it is in vivo, human. The protocol: The annealing temperature was 59° C.
Contingency tables were analyzed by Fisher's exact test.
Specimens of brain tumors from 47 consecutive subjects referred to the University Hospital of Navarre, in Pamplona, Spain, between April 1993 and November 1998 were studied. All the subjects provided written informed consent. […] Subjects were 38 to 70 years old (median age at diagnosis, 55 years); 30 were men, and 17 were women. Tumor specimens were obtained by resection or biopsy performed before the initiation of treatment with radiation and chemotherapy and were immediately frozen and stored at −80° C. All subjects were treated with intraarterial cisplatin (50 mg per square meter of body-surface area), whole-brain radiotherapy, and a median of three courses of intravenous carmustine (1,3-bis(2-chloroethyl)-1-nitrosourea, or BCNU; 100 mg per square meter) given at four-week intervals. Fifteen of the subjects also underwent autologous bone marrow transplantation plus high-dose chemotherapy treatment with three doses of intravenous carmustine (300 mg per square meter) per day and one dose of intraarterial cisplatin (100 mg)
The response to treatment was evaluated after the subjects had completed therapy. A complete response was defined as the absence of any evidence of the tumor on computed tomographic (CT) and magnetic resonance imaging (MRI) scans, with no need for steroid treatment and an improvement in the subject's general condition. Subjects with persistent CT abnormalities but with more than a 50 percent reduction in both the diameter and the volume of the tumor, a reduced need for steroid treatment, and a stabilized neurologic condition were considered to have a partial response. The disease was considered to have progressed if both the diameter and volume of the tumor increased by 25 percent or more of the initial measurements, if a new lesion was evident on CT or MRI scans, or if the subject's neurologic condition worsened and required an increased dose of steroids.
Forty-seven newly diagnosed grade III or IV gliomas (classified as anaplastic astrocytoma in 18 subjects and as glioblastoma multiforme in 29) were analyzed. Methylation of the MGMT promoter was found in 19 of the 47 tumors (40 percent) a frequency similar to that found in a previous study (Estellar, 1999, supra) and consistent with that in other reports (Silber et al., Cancer Res 1993; 53:3416-3420; and Silber et al., Cancer Res 1998; 58:1068-1073). Methylation was not associated with the subject's age, the Karnofsky score for performance status, or the grade of the tumor (P>0.3 for each comparison).

The mark [5] stands for this setting: subjects with MGMT methylation (N=30).
[6] abbreviates: subjects without methylation (N=54).

Like-named read-outs stand apart in the source and are kept apart here.

As for `O=P1(N(CCCl)CCCl)NCCCO1` (stereo not shown) [cyclophosphamide], in experiment [1] (setting [5]), the “CR (complete remission)” value is reported as 77%, the NR stood at 10% and the “PR (partial remission)” value is 13%. Further, in experiment [1] (setting [6]), the NR stood at 22%, the “PCR (complete remission)” value stood at 63% and the “PR (partial remission)” value is on record as 15%. Also, the “time to death, hazard ratio for non-methylation” value in experiment [1] (univariate, 95% CI 1.2 to 7.5, p=0.01) was found to be 2.8. Also, the “disease progression, hazard ratio without vs with methylation” value in experiment [1] (univariate, 95% CI 1.3 to 5.8, p=0.005) is reported as 2.6.

For `Nc1nc(OCc2ccccc2)c2nc[nH]c2n1` [O^6-benzylguanine], the “effect on MGMT enzyme” value on MGMT [2] is reported as “inactivates the enzyme”. Further, the “effect on sensitivity to cyclophosphamide metabolites” value on MGMT [3] was “increase sensitivity to cyclophosphamide metabolites”. Besides, at MGMT [3] (in vitro and in vivo), the “effect on response to alkyl nitrosoureas” value was “enhance the response to alkyl nitrosoureas in vitro and in vivo”.

Regarding `O=NN(CCCl)C(=O)NCCCl` [carmustine, 1,3-bis(2-chloroethyl)-1-nitrosourea], the “risk of death, hazard ratio” value in experiment [4] (lack of methylation vs methylation, univariate, 95% CI 3.0 to 42.7) stood at 9.5. The results for the “Complete response, % (95% CI)” value in experiment [4] (methylated (N=19)) and in experiment [4] (unmethylated (N=28)) were 11 (1-33) % and 0 (0-12) %, respectively. Also, the “No Change, % (95% CI)” value is given as 16 (3-38) % in experiment [4] (methylated (N=19)) and 14 (4-33) % in experiment [4] (unmethylated (N=28)). The “Partial response, % (95% CI)” value in experiment [4] (methylated (N=19)) is recorded as 52 (29-76) %; in experiment [4] (unmethylated (N=28)) it was 4 (0-18) %. Further, the “Progression, % (95% CI)” value was 21 (6-44) % in experiment [4] (methylated (N=19)) and 82 (63-94) % in experiment [4] (unmethylated (N=28)). Besides, the “median time to the progression of disease” value in experiment [4] (methylated gliomas) stood at 21 months; in experiment [4] (unmethylated gliomas), 8 months. Also, the “time to progression, hazard ratio associated with nonmethylation” value in experiment [4] (nonmethylation vs methylation, 95% CI 4.4 to 30.8) stood at 10.8. Also, the “partial or complete response to carmustine” value in experiment [4] (subjects with methylated MGMT promoter tumors (N=19)) was 63%; in experiment [4] (subjects with unmethylated MGMT promoter tumors (N=28)), 4%.
